In patent publication US20220175721A1, “TREATMENT FOR POLYCYSTIC OVARIAN SYNDROME (PCOS)” (Cadila Healthcare Limited, priority 2019, published 2022):
Where “and” joins values, the source holds several entries; their conditions need not be identical. Identical values can stand only once.

Key:
Format in all cases: in vivo
[1] = system: letrozole-induced PCOS in female Zucker fa/fa rats; assay: Ovaries weight in letrozole-induced PCOS rats; conditions: (Ia) 4 mg/kg; for Ovaries weight, % Change Vs Vehicle Control / Ovaries weight: after 4 weeks of oral treatment, metformin 200 mg/kg; for Ovaries weight: Mean±SEM, n=6
Description: Female Zucker fa/fa rats (6-8 weeks) were issued from animal house of Zydus research Centre and quarantined for 7 weeks. At the age of 13-15 weeks all animals were administered Letrozole (1 mg/kg/2 ml) orally for 4 weeks to induce PCOS. […] Letrozole (1 mg/kg/2 mL) treatment was continued. At the end of study, animals were sacrificed by cervical dislocation and ovaries were collected and weighed.

[2] = system: letrozole-induced PCOS in female Zucker fa/fa rats; assay: Serum LH, FSH and testosterone (ELISA) in letrozole-induced PCOS rats; conditions: (Ia) 4 mg/kg
Description: (§1) Female Zucker fa/fa rats (6-8 weeks) were issued from animal house of Zydus research Centre and quarantined for 7 weeks. At the age of 13-15 weeks all animals were administered Letrozole (1 mg/kg/2 ml) orally for 4 weeks to induce PCOS.
(§2) After 4 weeks of Letrozole, all animals with confirmed PCOS on basis of body weight and estrous cycle were randomized. […] Letrozole (1 mg/kg/2 mL) treatment was continued.
After 4 weeks of compound of formula (Ia) treatment, Insulin was subcutaneously injected at 1.5 U/kg regular insulin and 2 g/kg glucose load was administered orally. Blood was collected 40 min following injection. Serum samples were analyzed for LH, FSH and testosterone using ELISA kit according to manufacturer's instructions.

[3] = system: letrozole-induced PCOS in female Zucker fa/fa rats; assay: Insulin tolerance test in letrozole-induced PCOS rats; conditions: (Ia) 4 mg/kg
Description: as §1, §2
Continuing compound of formula (Ia) treatment for next two days, insulin tolerance test was performed after 6 h fast. […] Whole blood glucose was estimated using One-touch ultra-blood glucose meter. Blood glucose levels were then estimated at 0, 15, 30, 60 and 120 min corresponding to the insulin injection.

[4] = system: Letrozole-induced polycystic ovary syndrome (PCOS) in female Wistar rats; assay: Histological count of cystic follicles in letrozole-induced PCOS rats
Description: Sixty female Wistar rats (7-8 weeks) were issued from animal house of Zydus research Centre and quarantined for 4 weeks. At the age of 11-12 weeks all animals were randomized on body weight basis into two treatment groups, namely, vehicle (n=10) as non-PCOS or Letrozole (n=50) for PCOS. Formulated Letrozole (1 mg/kg/2 ml) were administered orally for 4 weeks to induce PCOS.
After 4 weeks of Letrozole, all animals with confirmed PCOS on basis of body weight and estrous cycle were randomized. After randomization, animals were assigned to either Vehicle control or Compound of Formula (Ia) (4 mg/kg, PO) treatment (n=8). Letrozole (1 mg/kg/2 mL) treatment was continued. Rest of the animals was sacrificed.
At the end of treatment, animals were sacrificed by cervical dislocation and ovaries were collected in 10% formalin. Ovaries were processed and embedded in paraffin and subjected to serial sectioning at 3-5 μm using rotary microtome, and sections were transferred on glass slides and stained with haematoxylin-eosin (H and E). The evaluation was done using light microscope and grading of the tissue pathological status was done. Total numbers of cystic follicles were counted on all sections throughout each ovary.

[5] = after 4 weeks of oral treatment, metformin 200 mg/kg
[6] = after 4 weeks of oral treatment, metformin 200 mg/kg, Mean±SEM, n=6
[7] = repeated dose oral treatment, alone or with metformin 200 mg/kg
[8] = 4 mg/kg, individual animal mean of 6 sections
[9] = 4 mg/kg, individual animal, ovary sections 1-6

For CN(C)C(=N)N=C(N)N [Metformin, reference compound], the “Ovaries weight, % Change Vs Vehicle Control” value [1] was −2.4 ± 4.1%, the “Ovaries weight” value [1] was 169.8 ± 11.9 mg and the “Serum FSH, % Change Vs Vehicle Control” value [2, 5] was 4.4 ± 3.6%. For the same compound, the “Serum LH, % Change Vs Vehicle Control” value [2, 5] was 0.81 ± 3.1%, the “Serum testosterone, % Change Vs Vehicle Control” value [2, 5] was −2.4 ± 4.1% and the “Serum FSH” value [2, 6] was 85.3 ± 3.2 ng/mL. For the same compound, the “Serum LH” value [2, 6] was 109.6 ± 9.2 ng/mL and the “Serum testosterone” value [2, 6] was 4.0 ± 0.9 ng/mL.
With CCO[C@@H](Cc1ccc(OCCn2c(C)ccc2-c2ccc(SC)cc2)cc1)C(=O)O [Compound of Formula (Ia), Saroglitazar Magnesium] the “AUC glucose, % Change Vs Vehicle Control” value ([3]; insulin tolerance test after 4 weeks of oral treatment, metformin 200 mg/kg) was −37.4 ± 4.9%, the “AUC glucose (120 min*mg/dL)” value ([3]; insulin tolerance test after 4 weeks of oral treatment, metformin 200 mg/kg, Mean±SEM, n=6) was 6819.0 ± 535.8 mg·min/dL and the “insulin sensitivity (in words)” value [3, 7] was “significantly improved”. The “Ovaries weight, % Change Vs Vehicle Control” value [1] was −20.7 ± 3.5%, the “Ovaries weight” value [1] was 137.2 ± 6.1 mg and the “ovary weight (in words)” value [1, 7] was “normalized”. The “cystic follicles, Mean of ovary sections, Animal-9” value [4, 8] was 3.50, the “cystic follicles, Mean of ovary sections, Animal-10” value [4, 8] was 3.50 and the “cystic follicles, Mean of ovary sections, Animal-11” value [4, 8] was 7.50. For the same compound, the “cystic follicles, Mean of ovary sections, Animal-12” value [4, 8] was 3.83, the “cystic follicles, Mean of ovary sections, Animal-13” value [4, 8] was 2.00 and the “cystic follicles, Mean of ovary sections, Animal-14” value [4, 8] was 4.67. The “cystic follicles, Mean of ovary sections, Animal-15” value [4, 8] was 3.83, the “cystic follicles, Mean of ovary sections, Animal-16” value [4, 8] was 9.50 and the “cystic follicles per ovary section, Animal-9” value [4, 9] was 4 (3×) and 3 (3×). For the same compound, the “cystic follicles per ovary section, Animal-10” value [4, 9] was 3 (3×) and 4 (3×), the “cystic follicles per ovary section, Animal-11” value [4, 9] was 7 (3×) and 8 (3×) and the “cystic follicles per ovary section, Animal-12” value [4, 9] was 4 and 3 (3×) and 5 (2×). For the same compound, the “cystic follicles per ovary section, Animal-13” value [4, 9] was 2, the “cystic follicles per ovary section, Animal-14” value [4, 9] was 5 (4×) and 4 (2×) and the “cystic follicles per ovary section, Animal-15” value [4, 9] was 4 and 3 (3×) and 5 (2×). The “cystic follicles per ovary section, Animal-16” value [4, 9] was 11 (3×) and 10 and 2 and 12, the “Number of cystic follicle, % Change Vs Vehicle control” value ([4]; after 4 weeks of treatment, 4 mg/kg PO) was −56.6 ± 7.9% and the “Number of cystic follicle” value ([4]; after 4 weeks of treatment, 4 mg/kg PO, Mean ± SEM, n=8) was 4.79 ± 0.87. The “occurrence of cystic follicles (in words)” value ([4]; female Wistar rats, PCOS induced using Letrozole) was “significantly decreased”, the “LH/FSH ratio, % Change Vs Vehicle Control” value [2, 5] was −17.1 ± 6.0% and the “Serum FSH, % Change Vs Vehicle Control” value [2, 5] was 32.3 ± 4.5%. For the same compound, the “Serum LH, % Change Vs Vehicle Control” value [2, 5] was 9.9 ± 7.4%, the “Serum testosterone, % Change Vs Vehicle Control” value [2, 5] was −61.8 ± 4.7% and the LH/FSH ratio [2, 6] was 1.2 ± 0.1. The “Serum FSH” value [2, 6] was 103.1 ± 3.5 ng/mL, the “Serum LH” value [2, 6] was 121.4 ± 8.2 ng/mL and the “Serum testosterone” value [2, 6] was 1.6 ± 0.2 ng/mL. For the same compound, the “LH/FSH ratio (in words)” value ([2]; repeated dose oral treatment) was “decreased”, the “serum FSH (in words)” value ([2]; repeated dose oral treatment) was “increased” and the “serum testosterone (in words)” value [2, 7] was “decreased”.
